# In publication PMC10813753 (Biology, 2024):
# Experiments:
# [1] = tested on: RWPE-1 cells (healthy prostate); experiment: MTT viability assay RWPE-1; assay type: cell-based, human; details: 72 h
# Protocol: A panel of five tumor cell lines and two normal cell lines was used to preliminarily test the cytotoxicity of compounds 1–4, and the experiments were conducted as previously reported. All human cell lines were acquired from American Type Culture Collection (ATCC): tumor PC-3 and DU145 (prostate), HeLa (cervix), MCF7 (breast) and HT29 (colorectal) and healthy HFF-1 (fibroblast) and RWPE-1 (prostate). The cell catalogue reference and culture media used in the experiments were CRL-1435^TM, RPMI (PC-3), HTB-81™, RPMI (DU145), CCL-2^TM, DMEM (HeLa), HTB-22^TM, DMEM (MCF-7), HTB-38^TM, modified McCoy’s 5a medium, Catalogue No. 30-2007 (HT29), SCRC-1041^TM, DMEM (HFF-1) and CRL-11609^TM, Keratinocyte-SFM (RWPE-1). Culture media were purchased from Merck: RPMI-1640, DMEM + 10% FBS (Fetal Bovine Serum) + […] (penicillin/streptomycin/amphotericin B). Media and supplements for RWPE-1 were from ThermoFisher (17005075, Madrid, Spain). MCF7 cells were additionally supplemented with insulin (0.001 mg/mL in 500 mL media). Cells were kept at 37 °C (5% CO2), and culture media were renewed three times per week. When the cells reached 80–100% confluence, they were trypsinized and centrifuged, and the concentration was adjusted to each experiment. Cells were seeded at a density of ~10,000 cells/well into 24-well plates. The cells were treated with ligands 1–4 or the cytotoxic agents PhenQE8, PhenDC3 or cisplatin at different concentrations (10 nM–100 μM). Compound solutions were freshly prepared using the appropriate culture medium. Triplicate experiments were run. For MTT viability assays, after 72 h incubation, 50 μL of MTT (5 mg/mL) was added, and an additional incubation of 4 h was allowed. The medium in each well was then replaced by DMSO, and the absorbance was measured at 570 nm using an ELISA plate reader. Absorbances were normalized using negative controls (untreated cells, in triplicate, with a maximum of 0.9% DMSO content). Dose–response curves were obtained by plotting the percentage of viable cells versus logarithmic compound concentration. IC50 values were determined using Kaleidagragh^TM (3.52) software by adjusting the data to Equation 1/(1 + 10^(m2*(log(m1) − x))); m1 = 0.000003; m2 = 1.
# [2] = tested on: HeLa cells; experiment: Annexin V/PI FITC apoptosis assay, HeLa; assay type: cell-based, human; details: 20 μM, 48 h, in comparison to untreated cells
# Protocol: For the Annexin V apoptosis experiments, approximately half of the cells used in combined experiments with cell cycle analysis were harvested via trypsinization, PBS washed and stained with the Annexin-V FITC & PI kit (Invitrogen^TM ref. V 13242, Thermo Fisher, Madrid, Spain) following a standard protocol. A total of 10,000 events were recorded, and the results obtained by flow cytometry were represented as dot plots.
substance,measurement,setting,value
"2,2′-(1,10-Phenanthroline-2,9-diyl)-bis(methylene)-bis(hydrazine-1-carbothioamide) [compound 1]",IC50,[1],90.8 ± 8.8 µM
same,increase in the number of early apoptotic and late apoptotic cells,[2],20–25%
